{"source": "paper PMC13376213", "about": "“Systematic discovery of motif-based interactions of the auxiliary domains of USP family deubiquitinases” (Nature Communications, 2026)", "format_in_all_cases": "binding", "key": {"[1]": {"molecular_target": "T1, USP20 DUSP2 N805A (Homo sapiens, UniProt Q9Y2K6, N805A)", "T1 construct": "USP20_DUSP2; Q9Y2K6; DUSP2; 776; 894; 6xHis-GST (N, cleaved yes); made in house; host or cells: Escherichia coli BL21-Gold (DE3)", "T1 sequence (Q9Y2K6 with tags, fused parts or gaps N805A)": "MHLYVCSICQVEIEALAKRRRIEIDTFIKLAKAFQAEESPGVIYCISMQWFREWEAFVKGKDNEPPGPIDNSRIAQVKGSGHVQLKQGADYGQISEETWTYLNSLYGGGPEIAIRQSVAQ", "experiment": "FP-monitored affinity measurements, USP20 DUSP2 single mutant", "conditions": "FP, FITC-labeled probe peptide, single mutant domain (Fig. 5F); technical triplicate; read-out: KD, USP20 DUSP2 N805A with FITC-labeled probe peptide", "procedure": "(§1) Proteins were expressed in Escherichia coli (E.coli) BL21-Gold (DE3) bacteria. The cDNAs encoding N-terminal 6-histidine-glutathione S-transferase tagged (6xHis-GST), 6xHis-tagged or GST-tagged protein domains in pETM33, pETM11, pGEX6P1 expression vectors respectively, were obtained from Genescript or kindly provided by MRC-PPU (Suppl. Data 1) The bacteria were transformed with the plasmid and grew at 37 °C in 2YT (5 g/L NaCl, 16 g/L tryptone and 10 g/L yeast extract) supplemented with Kanamycin (30 μg/mL) until reaching an OD600 of 0.7. Protein expression was induced with 0.3 mM isopropyl β-D-1 thiogalactopyranoside (IPTG) for 18 h at 18 °C while shaking. For zinc-finger domains, 50 μM of ZnSO4 was added during expression. […] For fluorescence polarization experiments, the proteins were not eluted from the beads, and the 6xHis-GST tag was cleaved overnight on GSH Sepharose beads at 4 °C while shaking with PreScission Protease in cleavage buffer (50 mM Tris pH 7.5, 150 mM NaCl, 1 mM DTT). […] The purity and size of the proteins were analyzed by SDS-PAGE electrophoresis.\n(§2) The measurements were performed at room temperature in a non-binding black half area 96-well plate (Corning) with a total volume of 50 μL per well. […] The data were analyzed using GraphPad Prism version 9.2.0 for MacOS (GraphPad Software, San Diego, California USA, www.graphpad.com). […]"}, "[2]": {"molecular_target": "T2, USP20 DUSP2 K833E-K835E (Homo sapiens, UniProt Q9Y2K6, K833E/K835E)", "T2 construct": "USP20_DUSP2; Q9Y2K6; DUSP2; 776; 894; 6xHis-GST (N, cleaved yes); made in house; host or cells: Escherichia coli BL21-Gold (DE3)", "T2 sequence (Q9Y2K6 with tags, fused parts or gaps K833E/K835E)": "as the sequence (Q9Y2K6 with tags, fused parts or gaps N805A) above, with A31N, K59E, K61E counted along it", "experiment": "FP-monitored affinity measurements, USP20 DUSP2 double mutant", "conditions": "FP, FITC-labeled probe peptide, double mutant domain (Fig. 5F); technical triplicate; read-out: KD, USP20 DUSP2 K833E-K835E with FITC-labeled probe peptide", "procedure": "as §1, §2"}, "[3]": {"molecular_target": "T3, USP22 zf-UBP domain (Homo sapiens, UniProt Q9UPT9)", "T3 construct": "USP22_zf-UBP; Q9UPT9; zf-UBP; 37; 130; 6xHis-GST (N, cleaved yes); made in house; host or cells: Escherichia coli BL21-Gold (DE3)", "T3 sequence (Q9UPT9 37-130)": "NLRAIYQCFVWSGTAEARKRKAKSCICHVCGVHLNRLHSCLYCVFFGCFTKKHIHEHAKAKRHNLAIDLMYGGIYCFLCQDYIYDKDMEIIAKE", "experiment": "FP-monitored affinity measurements, USP22 zf-UBP", "conditions": "USP22_zf-UBP", "procedure": "(§3) Proteins were expressed in Escherichia coli (E.coli) BL21-Gold (DE3) bacteria. The cDNAs encoding N-terminal 6-histidine-glutathione S-transferase tagged (6xHis-GST), 6xHis-tagged or GST-tagged protein domains in pETM33, pETM11, pGEX6P1 expression vectors respectively, were obtained from Genescript or kindly provided by MRC-PPU (Suppl. Data 1) The bacteria were transformed with the plasmid and grew at 37 °C in 2YT (5 g/L NaCl, 16 g/L tryptone and 10 g/L yeast extract) supplemented with Kanamycin (30 μg/mL) until reaching an OD600 of 0.7. Protein expression was induced with 0.3 mM isopropyl β-D-1 thiogalactopyranoside (IPTG) for 18 h at 18 °C while shaking. For zinc-finger domains, 50 μM of ZnSO4 was added during expression. The bacterial cultures were pelleted for 15 minutes at 4000 x g at 4 °C and stored at −20 °C until purification. The pellets were resuspended in lysis buffer (1× phosphate-buffered saline (PBS), 0.5 % Triton-X, 5 mM MgCl2, 10 μg/mL lysozyme, cOmplete^TM EDTA-free protease inhibitor cocktail (Roche), 10 μg/mL DNAseI) and incubated for 1 h shaking at 4 °C. […] The supernatant was incubated with glutathione (GSH) Sepharose (Cytiva) or Ni2+ Sepharose (Cytiva) for 1 h at 4 °C while shaking. The beads with the bound protein were washed with 1x PBS and eluted with 10 mM reduced glutathione in 50 mM Tris pH 8.0. For fluorescence polarization experiments, the proteins were not eluted from the beads, and the 6xHis-GST tag was cleaved overnight on GSH Sepharose beads at 4 °C while shaking with PreScission Protease in cleavage buffer (50 mM Tris pH 7.5, 150 mM NaCl, 1 mM DTT). The sample containing the cleaved domain was separated from the tag and protease and buffer-exchanged to 50 mM sodium phosphate buffer pH 7.4 with 1 mM DTT using a PD-10 desalting column (Cytiva). The purity and size of the proteins were analyzed by SDS-PAGE electrophoresis.\n(§4) The measurements were performed at room temperature in a non-binding black half area 96-well plate (Corning) with a total volume of 50 μL per well. Peptides were obtained from GeneCust (France) with >95% purity. FITC-labeled peptides (N-terminally FITC-labeled without spacer and C-terminally amidated) were dissolved in dimethyl sulfoxide (DMSO), and unlabeled peptides (N-terminally acetylated and C-terminally amidated) were dissolved in 50 mM phosphate buffer pH 7.4. Saturation measurements were performed using a serial dilution of the protein domains in phosphate buffer (25 μL) and the addition of 10 nM FITC-labeled peptide (in phosphate buffer supplemented with 2 mM DTT) (25 μL). […] All measurements were performed in three technical replicates. The data were analyzed using GraphPad Prism version 9.2.0 for MacOS (GraphPad Software, San Diego, California USA, www.graphpad.com). The saturation curves were fitted to the quadratic equation, and the displacement curves were fitted to a sigmoidal dose-response equation as described previously."}, "[4]": {"molecular_target": "T4, USP11 DUSP-UBL domain (Homo sapiens, UniProt P51784)", "T4 construct": "USP11_UBL; P51784; UBL; 6xHis-GST (N, cleaved yes); made in house; host or cells: Escherichia coli BL21-Gold (DE3)", "T4 sequence (P51784 67-288)": "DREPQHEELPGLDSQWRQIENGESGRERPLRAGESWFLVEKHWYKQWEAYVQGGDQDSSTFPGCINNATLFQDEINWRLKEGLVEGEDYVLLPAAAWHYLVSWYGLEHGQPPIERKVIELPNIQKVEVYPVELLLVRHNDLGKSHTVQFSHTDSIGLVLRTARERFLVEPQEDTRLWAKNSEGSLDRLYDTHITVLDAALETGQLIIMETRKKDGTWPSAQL", "experiment": "FP-based affinity measurements, USP11 DUSP-UBL", "procedure": "as §3\nas §4, with “The saturation curves were fitted to the quadratic equation, and the displacement curves were fitted to a sigmoidal dose-response equation as described previously.” left out"}, "[5]": {"molecular_target": "T5, USP20 zf-UBP domain (Homo sapiens, UniProt Q9Y2K6)", "T5 construct": "USP20_UBP; Q9Y2K6; zf-UBP; 99; 6xHis-GST (N, cleaved yes); made in house; host or cells: Escherichia coli BL21-Gold (DE3)", "T5 sequence (Q9Y2K6 4-99)": "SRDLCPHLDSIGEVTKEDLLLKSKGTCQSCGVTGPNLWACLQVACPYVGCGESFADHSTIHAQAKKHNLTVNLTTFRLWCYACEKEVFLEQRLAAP", "experiment": "FP-monitored affinity measurements, USP20 zf-UBP", "experimental": "(§5) The measurements were performed at room temperature in a non-binding black half area 96-well plate (Corning) with a total volume of 50 μL per well. […] All measurements were performed in three technical replicates. […] The saturation curves were fitted to the quadratic equation, and the displacement curves were fitted to a sigmoidal dose-response equation as described previously[68]."}, "[6]": {"molecular_target": "T6, USP33 zf-UBP domain (Homo sapiens, UniProt Q8TEY7)", "T6 construct": "USP33_UBP; Q8TEY7; zf-UBP; 36; 130; 6xHis-GST (N, cleaved yes); made in house; host or cells: Escherichia coli BL21-Gold (DE3)", "T6 sequence (Q8TEY7 with tags, fused parts or gaps)": "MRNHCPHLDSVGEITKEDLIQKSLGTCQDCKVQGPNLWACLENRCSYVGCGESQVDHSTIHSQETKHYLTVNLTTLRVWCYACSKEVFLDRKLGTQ", "experiment": "FP-monitored affinity measurements, USP33 zf-UBP", "conditions": "FP-monitored affinity measurement (Supplementary Fig. 4D)", "experimental": "as §5"}}, "note": "Read-outs that look alike come from different tables or passages of the source. Ends that are not written are not given here. Peptide text beside a SMILES is read from it. * marks the point of attachment. FITC = O=C1OC2(c3ccc(O)cc3Oc3cc(O)ccc32)c2ccc(NC(=S)*)cc21"}
{"molecule": "CC[C@H](C)[C@H](NC(=O)[C@H](CC(N)=O)NC(=O)[C@H](Cc1c[nH]c2ccccc12)NC(=O)[C@H](C)NC(=O)[C@H](CC(C)C)NC(=O)[C@H](CC(=O)O)NC(=O)[C@H](CC(=O)O)NC(=O)[C@H](CC(=O)O)NC(=O)[C@H](CO)NC(=S)Nc1ccc2c(c1)C(=O)OC21c2ccc(O)cc2Oc2cc(O)ccc21)C(=O)N[C@@H](C)C(=O)N1CCC[C@H]1C(=O)N[C@@H](CCC(N)=O)C(=O)NCC(=O)N[C@@H](CC(C)C)C(=O)N[C@@H](CCC(N)=O)C(N)=O", "note": "[FITC-GPR137B348-362] ({FITC}-SDDDLAWNIAPQGLQ-NH2)", "values": [{"measurement": "Kd", "setting": "[1]", "result": "> 130", "unit": "µM"}, {"measurement": "Kd", "setting": "[2]", "result": "> 290", "unit": "µM"}]}
{"molecule": "Ac-VPSLDDFAGQSWSSWVERADLP-NH2 [ATXN7L2_18-39]", "values": [{"measurement": "Kd", "setting": "[3]; FP displacement by unlabelled peptide", "result": 2.91, "unit": "µM"}]}
{"molecule": "SAVTYPDWIGQSYSEV [ORAI1_48-63]", "values": [{"measurement": "Kd", "setting": "[4]; competitive FP, technical triplicates, read-out: KD, USP11 DUSP-UBL, unlabeled peptide (competitive binding)", "result": "> 200", "unit": "µM"}]}
{"molecule": "CC[C@H](C)[C@H](NC(=O)[C@H](Cc1c[nH]c2ccccc12)NC(=O)[C@H](CO)NC(=O)[C@H](CO)NC(=O)[C@H](Cc1c[nH]c2ccccc12)NC(=O)[C@@H]1CCCN1C(=O)[C@H](CCCCN)NC(=O)CNC(=O)[C@H](CC(C)C)NC(=O)[C@H](Cc1ccccc1)NC(=O)[C@H](C)NC(=O)[C@H](CCC(=O)O)NC(=O)[C@@H]1CCCN1C(=O)[C@H](CO)NC(=O)[C@@H]1CCCN1C(=O)[C@@H](NC(=S)Nc1ccc2c(c1)C(=O)OC21c2ccc(O)cc2Oc2cc(O)ccc21)C(C)C)C(=O)N[C@@H](CC(=O)O)C(=O)N[C@@H](C)C(=O)N[C@@H](C)C(=O)N[C@@H](CCCCN)C(=O)N[C@@H](CC(C)C)C(=O)N[C@@H](Cc1c[nH]cn1)C(N)=O", "note": "[FITC-ATXN7L1_36-57] ({FITC}-VPSPEAFLGKPWSSWIDAAKLH-NH2)", "values": [{"measurement": "Kd", "setting": "[3]; direct FP titration (saturation) of the FITC-labelled peptide", "result": 1, "unit": "µM"}]}
{"molecule": "ubiquitin C-terminus: ubiquitin C-terminal peptide (YLRLRGG) [reference compound]", "values": [{"measurement": "binding of the ubiquitin C-terminus to USP20 zf-UBP", "setting": "[5]; FP-monitored affinity measurement (Supplementary Fig. 4D)", "result": "do not bind the ubiquitin C-terminus with measurable affinity"}, {"measurement": "Kd", "setting": "[5]; USP20_UBP, FP displacement by unlabelled peptide, read-out: KD", "result": "> 50", "unit": "µM"}, {"measurement": "binding of the ubiquitin C-terminus to USP33 zf-UBP", "setting": "[6]", "result": "do not bind the ubiquitin C-terminus with measurable affinity"}]}
{"molecule": "CC[C@H](C)[C@H](NC(=O)[C@H](Cc1c[nH]c2ccccc12)NC(=O)[C@H](CC(=O)O)NC(=O)[C@@H]1CCCN1C(=O)[C@H](Cc1ccc(O)cc1)NC(=O)[C@@H](NC(=O)[C@@H](NC(=O)[C@H](C)NC(=O)[C@H](CO)NC(=S)Nc1ccc2c(c1)C(=O)OC21c2ccc(O)cc2Oc2cc(O)ccc21)C(C)C)[C@@H](C)O)C(=O)NCC(=O)N[C@@H](CCC(N)=O)C(=O)N[C@@H](CO)C(=O)N[C@@H](Cc1ccc(O)cc1)C(=O)N[C@@H](CO)C(=O)N[C@@H](CCC(=O)O)C(=O)N[C@H](C(N)=O)C(C)C", "note": "[FITC-ORAI1] ({FITC}-SAVTYPDWIGQSYSEV-NH2)", "values": [{"measurement": "Kd", "setting": "[4]; USP11_DUSP_UBL, direct FP titration (saturation) of the FITC-labelled peptide, read-out: KD", "result": "~294", "unit": "µM"}]}
